Assay results: patent US20250255850A1, “PHARMACEUTICAL COMPOSITIONS FOR TREATING NEUROLOGICAL CONDITIONS” (YISSUM RESEARCH DEVELOPMENT COMPANY OF THE HEBREW …, priority 2021, published 2025)
In brackets after ≈: the same amount, converted by molar mass.

Legend:
SH-SY5Y cells = experiment: Confocal immunofluorescence of synaptophysin and 3-nitrotyrosine; format: cell-based, human; details: pharmacological inhibition (7-NI) or knockdown of nNOS
Protocol: FIGS. 18A-C show immunofluorescence of synaptophysin and 3-nitrotyrosine in SH-SY5Y cells with inhibited nNOS activity. Cells (with or without treatment) were postfixed in 4% paraformaldehyde and then incubated with the primary rabbit monoclonal Syp (red), and either primary mouse monoclonal NeuN (green), or primary mouse monoclonal 3-Ntyr (green) antibodies, in another group of cells. Cells were incubated with their respective secondary antibodies, such as anti-mouse Alexa fluor488, or anti-rabbit Alexa fluor594, and then mounted with DAPI (Blue) in both groups of cells. The images were acquired using a confocal microscope. Groups of cells: SH-SY5Y, SH-SY5Y+7-NI, and SH-SY5Y+si-nNOS. Each group consisted of three independent sets of experiments and was run in triplicates. The initial cell seed number was ˜10^6/cm^2. FIG. 18A presents representative images of Syp and 3-Ntyr immunofluorescence. FIGS. 18B-C are bar graphs showing the relative fluorescent intensity of Syp (FIG. 18B) and N-Tyr (FIG. 18C) immunofluorescence in the 3 groups of cells. The data are presented as mean±SEM. One-way ANOVA followed by Fisher's LSD multiple comparison post hoc test was conducted. *P<0.05, **P<0.01, ***P<0.001. The scale bar is 100 μm. […]

3-nitrotyrosine = experiment: Confocal microscopy of 3-nitrotyrosine in cortical neurons, SHANK3 model mice; format: in vivo, mouse; details: cortical region, compared to neurons of untreated mice
Protocol: FIGS. 3G-H present confocal microscopy images (FIG. 3G) and a quantitative bar graph (FIG. 3H) showing nitro-tyrosine in the cortical region of neurons of wild-type mice (WT), SHANK3 model mice (M1) and SHANK3 model mice treated with 7-NI (M1+7-NI).
3-nitrotyrosine levels in were also evaluated by confocal microscopy of the cortical region in neurons of the tested mice, and the obtained data is presented in FIGS. 3G and 3H.

[1] = Solubility of 7-NI in PBS; format: physicochemical; details: phosphate buffer (PBS), aqueous buffer; 10 mM phosphate buffer pH 7.2
nNOS = target: T1, nNOS (Homo sapiens, UniProt P29475); experiment: NADPH-diaphorase activity assay in SH-SY5Y cell lysates; format: cell-based; details: 7-NI 100 μM 24 hours or 20 nM nNOS siRNA 24 hours
T1 construct: SH-SY5Y cells grown in six-well culture plates were lysed in 50 mM Tris-HCl buffer (pH 7.4); endogenous in cells; host or cells: SH-SY5Y (human neuroblastoma, ATCC)
T1 sequence (P29475 whole entry): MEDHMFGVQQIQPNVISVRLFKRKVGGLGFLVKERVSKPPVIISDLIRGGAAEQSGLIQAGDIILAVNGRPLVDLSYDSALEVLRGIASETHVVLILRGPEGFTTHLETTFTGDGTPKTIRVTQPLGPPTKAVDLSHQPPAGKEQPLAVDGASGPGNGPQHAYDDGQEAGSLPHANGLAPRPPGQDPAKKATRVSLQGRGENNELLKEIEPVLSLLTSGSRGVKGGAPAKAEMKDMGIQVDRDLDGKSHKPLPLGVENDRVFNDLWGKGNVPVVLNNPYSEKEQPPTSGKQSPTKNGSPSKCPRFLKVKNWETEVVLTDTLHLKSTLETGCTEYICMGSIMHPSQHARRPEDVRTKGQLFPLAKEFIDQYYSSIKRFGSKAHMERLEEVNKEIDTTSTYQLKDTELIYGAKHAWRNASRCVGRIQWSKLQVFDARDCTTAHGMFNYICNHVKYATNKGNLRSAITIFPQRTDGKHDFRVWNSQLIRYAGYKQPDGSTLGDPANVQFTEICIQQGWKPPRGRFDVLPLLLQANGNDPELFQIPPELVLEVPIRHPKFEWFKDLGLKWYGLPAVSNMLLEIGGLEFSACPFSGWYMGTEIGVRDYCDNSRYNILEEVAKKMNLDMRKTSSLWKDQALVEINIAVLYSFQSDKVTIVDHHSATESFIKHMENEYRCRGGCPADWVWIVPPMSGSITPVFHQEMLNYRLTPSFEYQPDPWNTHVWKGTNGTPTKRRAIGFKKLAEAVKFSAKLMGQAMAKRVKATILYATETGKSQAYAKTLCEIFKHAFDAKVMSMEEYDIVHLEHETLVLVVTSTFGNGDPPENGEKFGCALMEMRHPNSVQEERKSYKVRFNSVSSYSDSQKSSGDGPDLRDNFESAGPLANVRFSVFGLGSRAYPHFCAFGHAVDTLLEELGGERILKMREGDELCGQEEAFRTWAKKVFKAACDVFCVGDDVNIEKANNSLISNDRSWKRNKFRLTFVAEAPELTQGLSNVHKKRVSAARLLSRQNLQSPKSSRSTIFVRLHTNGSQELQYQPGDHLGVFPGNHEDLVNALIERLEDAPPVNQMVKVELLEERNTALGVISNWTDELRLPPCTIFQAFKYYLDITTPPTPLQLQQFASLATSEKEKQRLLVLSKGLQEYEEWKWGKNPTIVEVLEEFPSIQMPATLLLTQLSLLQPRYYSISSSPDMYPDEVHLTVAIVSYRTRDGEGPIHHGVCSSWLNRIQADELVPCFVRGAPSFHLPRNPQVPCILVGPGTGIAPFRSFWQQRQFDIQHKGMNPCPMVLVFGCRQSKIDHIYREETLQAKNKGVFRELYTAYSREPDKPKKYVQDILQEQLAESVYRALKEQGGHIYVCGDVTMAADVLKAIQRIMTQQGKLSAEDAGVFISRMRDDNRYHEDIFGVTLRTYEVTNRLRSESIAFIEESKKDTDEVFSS
Protocol: Human NB SH-SY5Y cells were obtained from the American Type Culture Collection (ATCC) and maintained in Dulbecco's modified Eagle's medium (DMEM) and Ham's F-12 (1:1) supplemented with 10% fetal bovine serum, 2 mM L-glutamine, and 100 U/ml penicillin-G/100 […] streptomycin in a humidified atmosphere (37° C., 5% CO2). Cells were plated onto 25 cm^2 and 75 cm^2 plates at a density of 7.0×10^5 and 2.1×10^6 cells/cm^2 respectively for Western blotting (WB) and 1×10^5 for immunofluorescence. The SH-SY5Y cells were treated with 100 μM 7-nitroindazole (7-NI) for 24 hours (Fujibayashi et al., 2015). This concentration was confirmed in a dose-response experiment (FIG. 14A) using an MTT viability assay. […]
The NADPH-diaphorase activity assay was used to determine the NOS activity based on the NADPH-dependent reduction of nitro-blue tetrazolium salt (NBT) to visible formazan (Amaroli and Chessa, 2012; Seckler et al., 2020). […] After a 15 min incubation period at 37° C., the production of formazan was measured spectrophotometrically at 585 nm. The data were expressed as absorbance units and normalized for the protein content of each sample. Protein concentration was measured by the bicinchoninic acid (BCA) protein assay using BSA as a standard (Ortiz-Ortiz et al., 2009). Released NO was measured using a Griess Assay Kit (Beyotime, Shanghai, China) according to the manufacturer's instructions.

physchem = details: organic solvent or mixture

solubility [1]: 0.14 mg/mL (≈ 0.858 mM)
NADPH diaphorase activity (nNOS): significantly inhibited
solubility (physchem): 32 mg/mL (≈ 196 mM)
Compound: O=[N+]([O-])c1cccc2cn[nH]c12 [7-NI, 7-nitroindazole]
intensity of 3-Ntyr immunofluorescence (SH-SY5Y cells): significantly decreased the intensity
intensity of Syp immunofluorescence (SH-SY5Y cells): significantly decreased the intensity
reduction of 3-nitrotyrosine levels in the neurons (3-nitrotyrosine): about 50%
